Reference: patent US20250002489A1, “BIFUNCTIONAL COMPOUNDS FOR DEGRADING ITK VIA UBIQUITIN PROTEOSOME PATHWAY” (NURIX THERAPEUTICS, INC., priority 2021, published 2025)

Molecular target: T1, ITK (Jurkat or Molt4 cells) (Homo sapiens, UniProt Q08881)
T1 construct: either human Jurkat (Clone E6-1 ATCC TIB-152) or Motl4 (ATCC CRL-1552), were plated; endogenous in cells; host or cells: Jurkat Clone E6-1 (ATCC TIB-152) or Molt4 (ATCC CRL-1552)
T1 sequence (Q08881 1-620): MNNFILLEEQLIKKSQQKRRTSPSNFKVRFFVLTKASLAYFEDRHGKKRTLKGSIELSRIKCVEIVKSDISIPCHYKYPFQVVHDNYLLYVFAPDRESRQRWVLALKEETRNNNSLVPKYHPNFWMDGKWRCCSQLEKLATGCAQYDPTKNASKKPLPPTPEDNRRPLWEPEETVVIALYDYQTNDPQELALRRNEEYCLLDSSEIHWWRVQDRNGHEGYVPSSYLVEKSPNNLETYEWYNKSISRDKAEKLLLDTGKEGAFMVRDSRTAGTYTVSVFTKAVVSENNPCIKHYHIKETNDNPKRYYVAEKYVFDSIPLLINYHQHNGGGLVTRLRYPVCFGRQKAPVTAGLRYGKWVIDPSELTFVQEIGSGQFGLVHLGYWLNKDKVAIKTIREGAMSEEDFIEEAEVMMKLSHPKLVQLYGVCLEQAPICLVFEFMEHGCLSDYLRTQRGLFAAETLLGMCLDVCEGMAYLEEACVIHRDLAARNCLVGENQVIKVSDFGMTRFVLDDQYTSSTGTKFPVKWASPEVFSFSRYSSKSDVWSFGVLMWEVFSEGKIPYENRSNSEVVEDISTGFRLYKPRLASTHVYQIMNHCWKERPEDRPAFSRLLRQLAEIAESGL
Assay: ITK Degradation MSD (Meso Scale Discovery) Assay
Assay type: cell-based
Conditions: 4 or 6 hrs incubation; for DC50: best fit IC50 used as DC50
Protocol: Compound dilution series (7-point, 5-fold dilutions in DMSO, rows B—H with replicate in Column 1/2, 3/4, 5/6, 7, and 8 at 2000× the final required concentrations were prepared in 96-well plate (Falcon, cat. no. 353077). Row A, Column 1-8 were control DMSO. The 2000× solutions ranged from 2 mM to 128 nM (final assay concentration range 1 μM to […]). The 2000×solutions were added to cells in 10 μL volume, for a final DMSO concentration of 0.5% and final assay compound concentration of 1×. For the cells, either human Jurkat (Clone E6-1 ATCC TIB-152) or Motl4 (ATCC CRL-1552), were plated at 1×10^6 cells/mL, 100 μL/well ([…]) in complete RPMI (10% FBS, 1% L-glutamine). The cells were incubated with compounds 26-29 for 4 or 6 hrs at 32° C./6% CO2.
Following incubation, plates were centrifuged at 1200 rpm for 5 min. Supernatant was removed and 50 μL of cell lysis buffer (MSD Tris lysis buffer (R60TX), complete Mini EDTA-free protease inhibitor (Sigma 11836170001), Protease Inhibitor Cocktail (Sigma, P2714), Phosphatase Inhibitor Cocktail 2 and 3 (Sigma, P5726 and P0044), Benzonase (Sigma, E1014)) was added to each well. Plate was sealed and shook at 4° C. for 30 min. Plate was centrifuged and 45 μL was removed for plate assay.
Assay plate preparation: Meso Scale Discovery (MSD) multi-array sm spot 96-well plates (Goat anti-Rabbit L^45-RA), were blocked with 3% BSA blocking buffer (3% Bovine Serum Albumin (Sigma A3059)+TBS 0.2% Tween-20) for one hour with gentle rocking at room temperature. Plate was then washed with 200 μL of 1×TBST (TBS 0.2% Tween-20) three times. After the last wash, all liquid was removed and 50 μL per well of capture antibody (abcam ITK Y402-ab32507) was added to plate at a 1:1000 dilution in blocking buffer (see above). Plate was sealed and rocked at room temperature for 2 hrs. Plate was then washed three times with 200 μL of 1×TBST. After the last wash, all liquid was removed and 45 μL of cell lysate (from above) was added to plate. Plate was sealed and rocked overnight at 4° C. The next day, cell lysates were removed, and assay plate was washed three times with 200 μL of 1×TBST. After the last wash, liquid was removed and detection antibody (CST ITK (2F12) #2380) was added at 50 μL per well at a dilution of 1:1000 in blocking buffer. Plate was sealed and rocked at room temperature for 2 hrs. Plate was washed three times with 200 μL of 1×TBST. After the last wash, all liquid was removed, MSD […] sulfo tag (R32AC-1) was diluted to 1:1000 in blocking buffer. 50 μL was added to each well on the plate. Plate was sealed and incubated at room temperature for one hour. Plate was washed three times with 200 μL of 1×TBST. After last wash, all liquid was removed and 150 μL of 1×MSD Read Buffer T (R92PC) was then added to each well for ECL read out.
For reading ECL signal, plate was read on a Meso Scale Discovery (MSD) MESO Sector S 600 plate reader. Percent ITK was then calculated as described below.
Percent ITK remaining per sample was calculated as follows: […]
Using Graphpad Prism, % ITK remaining values were plotted as a function of compound concentration. To determine DC50 and Dmax values, resulting curves were fit to the Prism curve-fitting equation “log(inhibitor) vs response−Variable slope (four parameters)” (reported best fit value IC50 used as DC50).

Structure (SMILES)	DC50	Dmax
CN[C@@H](C)C(=O)N[C@H](C(=O)N1C[C@@H](NC(=O)CCOCCC(=O)N2CC([C@@H](c3ccccc3)n3cc(NC(=O)c4n[nH]c5c4C[C@@H]4C(F)(F)[C@]4(C)C5)cn3)C2)C[C@H]1C(=O)N[C@@H]1CCCc2ccccc21)C1CCCCC1 [Compound 1]	251 nM	–
CN[C@@H](C)C(=O)N[C@H](C(=O)N1CCC[C@H]1c1nc(C(=O)c2cccc(OCCCCN3CC([C@@H](c4ccccc4)n4cc(NC(=O)c5n[nH]c6c5C[C@@H]5C(F)(F)[C@]5(C)C6)cn4)C3)c2)cs1)C1CCCCC1 [Compound 7, (4aS,5aR)—N-(1-((S)-(1-(4-(3-(2-((S)-1-((S)-2-cyclohexyl-2-((S)-2-(methylamino)propanamido)acetyl)pyrrolidin-2-yl)thiazole-4-carbonyl)phenoxy)butyl)azetidin-3-yl)(phenyl)methyl)-1H-pyrazol-4-yl)-5,5-difluoro-5a-methyl-1,4,4a,5,5a,6-hexahydrocyclopropa[f]indazole-3-carboxamide]	4.77 nM	–
CN[C@@H](C)C(=O)N[C@H](C(=O)N1CCCC1c1nc(C(=O)c2cccc(OCCOCCC(=O)N3CC([C@@H](c4ccccc4)n4cc(NC(=O)c5n[nH]c6c5C[C@@H]5C(F)(F)[C@]5(C)C6)cn4)C3)c2)cs1)C1CCCCC1 (stereo in doubt) [Compound 5, (4aS,5aR)—N-(1-((S)-(1-(3-(2-(3-(2-((R)-1-((S)-2-cyclohexyl-2-((S)-2-(methylamino)propanamido)acetyl)pyrrolidin-2-yl)thiazole-4-carbonyl)phenoxy)ethoxy)propanoyl)azetidin-3-yl)(phenyl)methyl)-1H-pyrazol-4-yl)-5,5-difluoro-5a-methyl-1,4,4a,5,5a,6-hexahydrocyclopropa[f]indazole-3-carboxamide]	14.6 nM	–

More lines, now with the values ahead:

DC50	Dmax	Structure (SMILES)
10.7 nM	–	CN[C@@H](C)C(=O)N[C@H](C(=O)N1CCC[C@H]1c1nc(C(=O)c2cccc(OCCOCCN3CC([C@@H](c4ccccc4)n4cc(NC(=O)c5n[nH]c6c5C[C@@H]5C(F)(F)[C@]5(C)C6)cn4)C3)c2)cs1)C1CCCCC1 [Compound 11, (4aS,5aR)—N-(1-((S)-(1-(2-(2-(3-(2-((S)-1-((S)-2-cyclohexyl-2-((S)-2-(methylamino)propanamido)acetyl)pyrrolidin-2-yl)thiazole-4-carbonyl)phenoxy)ethoxy)ethyl)azetidin-3-yl)(phenyl)methyl)-1H-pyrazol-4-yl)-5,5-difluoro-5a-methyl-1,4,4a,5,5a,6-hexahydrocyclopropa[f]indazole-3-carboxamide]
10.8 nM	94%	Cc1ncsc1-c1ccc(CNC(=O)[C@@H]2C[C@@H](O)CN2C(=O)[C@@H](NC(=O)C2(F)CC2)C(C)(C)C)c(OCCCCC(=O)N2CC([C@@H](c3ccccc3)n3cc(NC(=O)c4n[nH]c5c4C[C@@H]4C(F)(F)[C@]4(C)C5)cn3)C2)c1 [Compound 34, (4aS,5aR)-5,5-difluoro-N-(1-((S)-(1-(5-(2-(((2S,4R)-1-((S)-2-(1-fluorocyclopropane-1-carboxamido)-3,3-dimethylbutanoyl)-4-hydroxypyrrolidine-2-carboxamido)methyl)-5-(4-methylthiazol-5-yl)phenoxy)pentanoyl)azetidin-3-yl)(phenyl)methyl)-1H-pyrazol-4-yl)-5a-methyl-1,4,4a,5,5a,6-hexahydrocyclopropa[f]indazole-3-carboxamide]
114 nM	–	Cc1ncsc1-c1ccc(CNC(=O)[C@@H]2C[C@@H](O)CN2C(=O)[C@@H](NC(=O)CCOCCOCCOCCOCCN2CC([C@@H](c3ccccc3)n3cc(NC(=O)c4n[nH]c5c4C[C@@H]4C(F)(F)[C@]4(C)C5)cn3)C2)C(C)(C)C)cc1 [Compound 12, (4aS,5aR)-5,5-difluoro-N-(1-((S)-(1-((S)-17-((2S,4R)-4-hydroxy-2-((4-(4-methylthiazol-5-yl)benzyl)carbamoyl)pyrrolidine-1-carbonyl)-18,18-dimethyl-15-oxo-3,6,9,12-tetraoxa-16-azanonadecyl)azetidin-3-yl)(phenyl)methyl)-1H-pyrazol-4-yl)-5a-methyl-1,4,4a,5,5a,6-hexahydrocyclopropa[f]indazole-3-carboxamide]
